Target: SIK2 (Homo sapiens (Human), UniProt Q9H0K1)
Assay: SIK2 Enzymatic Assay Version 2 (High ATP)
Format: biochemical
Conditions: 3 mM ATP and 200 μM HDAC5tide final, ADP-Glo Max luminescence
Method in brief: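 Run at room temperature; SIK2 enzyme at 6 nM (2× final) preincubated with compound 30 min before reaction. ADP formation detected by ADP-Glo Max (2 h reagent, 1 h detection) with luminescence read-out.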

Chain of SIK2 (Q9H0K1 whole entry, species assumed): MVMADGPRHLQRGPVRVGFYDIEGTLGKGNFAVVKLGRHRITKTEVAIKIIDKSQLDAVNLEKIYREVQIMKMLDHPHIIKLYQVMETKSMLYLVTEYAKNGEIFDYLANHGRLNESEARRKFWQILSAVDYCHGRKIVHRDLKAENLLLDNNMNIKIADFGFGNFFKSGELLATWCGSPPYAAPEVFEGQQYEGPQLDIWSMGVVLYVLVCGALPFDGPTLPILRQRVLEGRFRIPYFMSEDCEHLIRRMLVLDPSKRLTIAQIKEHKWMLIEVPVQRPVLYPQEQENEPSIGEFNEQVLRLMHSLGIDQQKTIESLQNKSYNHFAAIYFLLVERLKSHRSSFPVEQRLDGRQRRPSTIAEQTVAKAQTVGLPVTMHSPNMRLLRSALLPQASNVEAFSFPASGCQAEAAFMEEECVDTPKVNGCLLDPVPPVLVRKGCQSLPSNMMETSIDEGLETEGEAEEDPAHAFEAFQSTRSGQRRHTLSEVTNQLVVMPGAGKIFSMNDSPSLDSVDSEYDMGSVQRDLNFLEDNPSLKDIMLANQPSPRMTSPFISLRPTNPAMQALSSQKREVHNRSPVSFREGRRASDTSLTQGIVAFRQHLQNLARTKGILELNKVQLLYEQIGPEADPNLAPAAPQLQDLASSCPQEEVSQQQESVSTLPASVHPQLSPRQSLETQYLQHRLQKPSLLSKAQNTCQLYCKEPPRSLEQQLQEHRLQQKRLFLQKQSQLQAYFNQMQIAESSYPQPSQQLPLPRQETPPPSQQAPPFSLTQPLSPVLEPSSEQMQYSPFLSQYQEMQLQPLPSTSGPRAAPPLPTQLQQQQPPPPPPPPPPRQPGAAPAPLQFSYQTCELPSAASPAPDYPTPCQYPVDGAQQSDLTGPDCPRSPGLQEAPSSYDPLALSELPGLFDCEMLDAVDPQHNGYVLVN

IC50	Structure (SMILES)
< 0.847 nM	[2H]C([2H])([2H])N1CC[C@@H]1COc1cnn(C)c1-c1ccn2nc(Nc3cc(C)nc(C)n3)cc2c1 [Example 290, N-(2,6-dimethylpyrimidin-4-yl)-5-[2-methyl-4-[[(2R)-1-(trideuteriomethyl)azetidin-2-yl]methoxy]pyrazol-3-yl]pyrazolo[1,5-a]pyridin-2-amine]
31.2 nM	Cn1ncc(OC[C@H]2CCN2)c1-c1ccn2nc(Nc3cncc(-n4cccn4)n3)cc2c1 [Example 291, 5-[4-[[(2R)-azetidin-2-yl]methoxy]-2-methyl-pyrazol-3-yl]-N-(6-pyrazol-1-ylpyrazin-2-yl)pyrazolo[1,5-a]pyridin-2-amine]
< 0.847 nM	Cc1cc(Nc2cc3cc(-c4c(OC[C@H]5CCN5C[C@H](C)O)cnn4C)ccn3n2)nc(C)n1 [Example 292, (2S)-1-[(2R)-2-[[5-[2-[(2,6-dimethylpyrimidin-4-yl)amino]pyrazolo[1,5-a]pyridin-5-yl]-1-methyl-pyrazol-4-yl]oxymethyl]azetidin-1-yl]propan-2-ol]
< 0.847 nM	[2H]C([2H])([2H])C([2H])([2H])N1CCC[C@@H]1COc1cnn(C)c1-c1ccn2nc(Nc3cc(C)nc(C)n3)cc2c1 [Example 293, N-(2,6-dimethylpyrimidin-4-yl)-5-[2-methyl-4-[[(2R)-1-(1,1,2,2,2-pentadeuterioethyl)pyrrolidin-2-yl]methoxy]pyrazol-3-yl]pyrazolo[1,5-a]pyridin-2-amine]
2.6 nM	[2H]C([2H])([2H])C([2H])([2H])N1CC[C@@H]1COc1cnn(C)c1-c1ccn2nc(Nc3cc(C)nc(C)n3)cc2c1 [Example 294, N-(2,6-dimethylpyrimidin-4-yl)-5-[2-methyl-4-[[(2R)-1-(1,1,2,2,2-pentadeuterioethyl)azetidin-2-yl]methoxy]pyrazol-3-yl]pyrazolo[1,5-a]pyridin-2-amine]
6.2 nM	Cc1cnc(Nc2cc3cc(-c4c(OC[C@H]5CCN5C[C@H](C)O)cnn4C)ccn3n2)cn1 [Example 296, (2S)-1-[(2R)-2-[[1-methyl-5-[2-[(5-methylpyrazin-2-yl)amino]pyrazolo[1,5-a]pyridin-5-yl]pyrazol-4-yl]oxymethyl]azetidin-1-yl]propan-2-ol]
< 0.847 nM	Cc1ncc(Nc2cc3cc(-c4c(OC[C@H]5CCN5C[C@H](C)O)cnn4C)ccn3n2)nc1C [Example 297, (2S)-1-[(2R)-2-[[5-[2-[(5,6-dimethylpyrazin-2-yl)amino]pyrazolo[1,5-a]pyridin-5-yl]-1-methyl-pyrazol-4-yl]oxymethyl]azetidin-1-yl]propan-2-ol]
39.2 nM	Cc1cc(Nc2cc3cc(-c4c(O[C@@H]5CCN[C@H]5C)cnn4C)ccn3n2)nc(C)n1 [Example 298, N-(2,6-dimethylpyrimidin-4-yl)-5-[2-methyl-4-[(2S,3R)-2-methylpyrrolidin-3-yl]oxy-pyrazol-3-yl]pyrazolo[1,5-a]pyridin-2-amine]
10.8 nM	Cc1cc(Nc2cc3cc(-c4c(OC[C@H]5OCC[C@@H]5O)cnn4C)ccn3n2)nc(C)n1 [Example 300, (2R,3S)-2-[[5-[2-[(2,6-dimethylpyrimidin-4-yl)amino]pyrazolo[1,5-a]pyridin-5-yl]-1-methyl-pyrazol-4-yl]oxymethyl]tetrahydrofuran-3-ol]
15.2 nM	Cc1cc(Nc2cc3cc(-c4c(OC[C@@H](O)C5(C)CC5)cnn4C)ccn3n2)nc(C)n1 [Example 301, (1S)-2-[5-[2-[(2,6-dimethylpyrimidin-4-yl)amino]pyrazolo[1,5-a]pyridin-5-yl]-1-methyl-pyrazol-4-yl]oxy-1-(1-methylcyclopropyl)ethanol]
28.3 nM	Cc1cc(Nc2cc3cc(-c4c(OC[C@@H](O)C5CCC5)cnn4C)ccn3n2)nc(C)n1 [Example 302, (S)-1-cyclobutyl-2-[5-[2-[(2,6-dimethylpyrimidin-4-yl)amino]pyrazolo[1,5-a]pyridin-5-yl]-1-methyl-pyrazol-4-yl]oxy-ethanol]
16.1 nM	Cc1cc(Nc2cc3cc(-c4c(OC[C@H]5C[C@H](C)CN5C)cnn4C)ccn3n2)nc(C)n1 [Example 305, N-(2,6-dimethylpyrimidin-4-yl)-5-[4-[[(2R,4S)-1,4-dimethylpyrrolidin-2-yl]methoxy]-2-methyl-pyrazol-3-yl]pyrazolo[1,5-a]pyridin-2-amine]
15.3 nM	Cc1cc(Nc2cc3cc(-c4c(OC[C@@H]5CCN5C)cnn4C)ccn3n2)nc(C(F)(F)F)n1 [Example 308, 5-[2-methyl-4-[[(2S)-1-methylazetidin-2-yl]methoxy]pyrazol-3-yl]-N-[6-methyl-2-(trifluoromethyl)pyrimidin-4-yl]pyrazolo[1,5-a]pyridin-2-amine]
2.9 nM	Cc1cc(Nc2cc3cc(-c4c(OCC(N)C5(C)CC5)cnn4C)ccn3n2)nc(C)n1 (stereo not drawn) [Example 309, 5-[4-[2-amino-2-(1-methylcyclopropyl)ethoxy]-2-methyl-pyrazol-3-yl]-N-(2,6-dimethylpyrimidin-4-yl)pyrazolo[1,5-a]pyridin-2-amine]
4 nM	Cc1cc(Nc2cc3cc(-c4c(OCC(N)C56CC(C5)C6)cnn4C)ccn3n2)nc(C)n1 (stereo not drawn) [Example 310, 5-[4-[2-amino-2-(3-bicyclo[1.1.1]pentanyl)ethoxy]-2-methyl-pyrazol-3-yl]-N-(2,6-dimethylpyrimidin-4-yl)pyrazolo[1,5-a]pyridin-2-amine]
1.4 nM	CCN1CC[C@@H]1COc1cnn(C)c1-c1ccn2nc(Nc3cnc(C(=O)OC)cn3)cc2c1 [Example 311, methyl 5-[[5-[4-[[(2R)-1-ethylazetidin-2-yl]methoxy]-2-methyl-pyrazol-3-yl]pyrazolo[1,5-a]pyridin-2-yl]amino]pyrazine-2-carboxylate]

Second part, the molecule before the results:

Structure (SMILES)	IC50
Cc1cc(Nc2cc3cc(-c4c(OC[C@H]5CCN5CCF)cnn4C)ccn3n2)nnc1C [Example 276, N-(5,6-dimethylpyridazin-3-yl)-5-[4-[[(2R)-1-(2-fluoroethyl)azetidin-2-yl]methoxy]-2-methyl-pyrazol-3-yl]pyrazolo[1,5-a]pyridin-2-amine]	0.9 nM
Cc1cc(Nc2cc3cc(-c4c(OC[C@H]5CCN5CCF)cnn4C)ccn3n2)ncn1 [Example 277, 5-[4-[[(2R)-1-(2-fluoroethyl)azetidin-2-yl]methoxy]-2-methyl-pyrazol-3-yl]-N-(6-methylpyrimidin-4-yl)pyrazolo[1,5-a]pyridin-2-amine]	1.4 nM
Cc1cncc(Nc2cc3cc(-c4c(OC[C@H]5CCN5CCF)cnn4C)ccn3n2)n1 [Example 278, 5-[4-[[(2R)-1-(2-fluoroethyl)azetidin-2-yl]methoxy]-2-methyl-pyrazol-3-yl]-N-(6-methylpyrazin-2-yl)pyrazolo[1,5-a]pyridin-2-amine]	1 nM
Cc1cnc(Nc2cc3cc(-c4c(OC[C@H]5CCN5CCF)cnn4C)ccn3n2)cn1 [Example 279, 5-[4-[[(2R)-1-(2-fluoroethyl)azetidin-2-yl]methoxy]-2-methyl-pyrazol-3-yl]-N-(5-methylpyrazin-2-yl)pyrazolo[1,5-a]pyridin-2-amine]	1.8 nM
CN1CC[C@H](Oc2cnn(C)c2-c2ccn3nc(Nc4ccc5c(n4)CCOC5)cc3c2)C1 [Example 280, N-[5-[2-methyl-4-[(3S)-1-methylpyrrolidin-3-yl]oxy-pyrazol-3-yl]pyrazolo[1,5-a]pyridin-2-yl]-7,8-dihydro-5H-pyrano[4,3-b]pyridin-2-amine]	35.8 nM
CN1CC[C@H](Oc2cnn(C)c2-c2ccn3nc(Nc4ccnc(C5CC5)n4)cc3c2)C1 [Example 281, N-(2-cyclopropylpyrimidin-4-yl)-5-[2-methyl-4-[(3S)-1-methylpyrrolidin-3-yl]oxy-pyrazol-3-yl]pyrazolo[1,5-a]pyridin-2-amine]	29.1 nM
Cc1cc(Nc2cc3cc(-c4c(OC[C@H]5CCCN5C)cnn4C)ccn3n2)nc(C)n1 [Example 282, N-(2,6-dimethylpyrimidin-4-yl)-5-[2-methyl-4-[[(2R)-1-methylpyrrolidin-2-yl]methoxy]pyrazol-3-yl]pyrazolo[1,5-a]pyridin-2-amine]	11.3 nM
Cc1cc(Nc2cc3cc(-c4c(OC[C@H]5CCCN5C)cnn4C)ccn3n2)nc(C(F)(F)F)n1 [Example 283, 5-[2-methyl-4-[[(2R)-1-methylpyrrolidin-2-yl]methoxy]pyrazol-3-yl]-N-[6-methyl-2-(trifluoromethyl)pyrimidin-4-yl]pyrazolo[1,5-a]pyridin-2-amine]	3.4 nM
CN1CCC[C@@H]1COc1cnn(C)c1-c1ccn2nc(Nc3ccc(C4CC4)nn3)cc2c1 [Example 284, N-(6-cyclopropylpyridazin-3-yl)-5-[2-methyl-4-[[(2R)-1-methylpyrrolidin-2-yl]methoxy]pyrazol-3-yl]pyrazolo[1,5-a]pyridin-2-amine]	16.5 nM
Cc1cc(Nc2cc3cc(-c4c(OC[C@H]5CCCN5C)cnn4C)ccn3n2)ncn1 [Example 285, 5-[2-methyl-4-[[(2R)-1-methylpyrrolidin-2-yl]methoxy]pyrazol-3-yl]-N-(6-methylpyrimidin-4-yl)pyrazolo[1,5-a]pyridin-2-amine]	18.5 nM
Cc1nccc(Nc2cc3cc(-c4c(OC[C@H]5CCCN5C)cnn4C)ccn3n2)n1 [Example 286, 5-[2-methyl-4-[[(2R)-1-methylpyrrolidin-2-yl]methoxy]pyrazol-3-yl]-N-(2-methylpyrimidin-4-yl)pyrazolo[1,5-a]pyridin-2-amine]	23.5 nM
Cc1ccc(Nc2cc3cc(-c4c(OC[C@H]5CCCN5C)cnn4C)ccn3n2)nn1 [Example 287, 5-[2-methyl-4-[[(2R)-1-methylpyrrolidin-2-yl]methoxy]pyrazol-3-yl]-N-(6-methylpyridazin-3-yl)pyrazolo[1,5-a]pyridin-2-amine]	37.2 nM
Cc1cc(Nc2cc3cc(-c4c(OCC56CC(CN5)C6)cnn4C)ccn3n2)nc(C)n1 [Example 288, 5-[4-(3-azabicyclo[2.1.1]hexan-4-ylmethoxy)-2-methyl-pyrazol-3-yl]-N-(2,6-dimethylpyrimidin-4-yl)pyrazolo[1,5-a]pyridin-2-amine]	16.8 nM
CCN1CCC[C@@H]1COc1cnn(C)c1-c1ccn2nc(Nc3cc(C)nc(C)n3)cc2c1 [Example 289, N-(2,6-dimethylpyrimidin-4-yl)-5-[4-[[(2R)-1-ethylpyrrolidin-2-yl]methoxy]-2-methyl-pyrazol-3-yl]pyrazolo[1,5-a]pyridin-2-amine]	1.4 nM

Source: patent US20240174662A1, “SMALL MOLECULE INHIBITORS OF SALT INDUCIBLE KINASES” (Janssen Biotech, Inc., priority 2021, published 2024)
